Assay results reported in patent US20160113932A1, “TREATMENT OF CANCERS USING PI3 KINASE ISOFORM MODULATORS” (INFINITY PHARMACEUTICALS, INC., priority 2013, published 2016).
Several values for one entry are separate records, joined by “and”; a condition that tells them apart may be missing. Equal entries are not always repeated. Where two headings read alike, the source gives them in different places.

Tests used:
[1] = Absolute bioavailability / pharmacokinetics in Beagle dogs; format: in vivo; details: Dog, PO, 5 mg/kg
[2] = system: OCI-LY3; assay: DLBCL cellular growth inhibition assay; format: cell-based; details: Homo sapiens
Experimental: Activation of the PI3K pathway is an important component of normal B-cell receptor (BCR) signaling and has been implicated in the pathogenesis of DLBCL. […] There was rapid modulation of phospho-AKT and phospho-PRAS40 by 30 minutes, whereas modulation of phospho-S6 was not detected until after 8 hours.

[3] = Absolute bioavailability / pharmacokinetics in cynomolgus monkeys; format: in vivo; details: Monkey, PO, 5 mg/kg, suspension
[4] = system: Human T-cell; assay: Human T-cell proliferation; format: cell-based
[5] = system: respiratory system; assay: Respiratory study in Sprague Dawley rat; format: in vivo; details: male rat, single oral administration up to 350 mg/kg
[6] = In vitro genetic toxicity studies
[7] = system: U2932; assay: DLBCL cellular growth inhibition, 72 hour CTG assay; format: cell-based; details: Homo sapiens
[8] = Absolute bioavailability / pharmacokinetics in BALB/c mice; format: in vivo; details: Mouse, PO, 10 mg/kg, suspension, calculated using AUC0-last

Question: Which Foral ([1]; calculated using 0.5 mg/kg IV dose as reference and AUC0-last) does the source give for C[C@H](Nc1ncnc2[nH]cnc12)c1cc2cccc(Cl)c2c(=O)n1-c1ccccc1 [Compound 292] here?
Answer: 97g'i %

Question: What about the Foral ([1]; calculated using 1 mg/kg IV dose as reference and AUC0-last) of the same compound?
Answer: 40% and 40h'i %

Question: What about the “Any AE” value (25 mg BID (n = 34)) of the same compound?
Answer: 27

Question: What about the “Any AE, Grade 3” value (25 mg BID (n = 34)) of the same compound?
Answer: 7

Question: And the “Any AE, Grade 4” value (25 mg BID (n = 34))?
Answer: 5

Question: What about the “New Grade 3 ALT” value (25 mg BID (n = 34)) of the same compound?
Answer: 3

Question: What about the “New Grade 3 ANC” value (25 mg BID (n = 34)) of the same compound?
Answer: 2

Question: What about the “New Grade 4 ANC” value (25 mg BID (n = 34)) of the same compound?
Answer: 4

Question: What about the “Related AE” value (25 mg BID (n = 34)) of the same compound?
Answer: 18

Question: And the “Related Grade 3 AE” value (25 mg BID (n = 34))?
Answer: 4/4

Question: And the “Related Grade 4 AE” value (25 mg BID (n = 34))?
Answer: 4/4

Question: And the “new Grade >3 neutropenia” value (20 patients, 8-50 mg BID)?
Answer: 6 n

Question: What about the “patients with AEs Grade >3” value (20 patients, 8-50 mg BID) of the same compound?
Answer: 7 patients

Question: And the “patients with adverse events (AEs)” value (20 patients, 8-50 mg BID)?
Answer: 13 patients

Question: What about the “dose limiting toxicity observed to date” value (20 patients, 15 mg dose cohort) of the same compound?
Answer: Grade 4 neutropenia

Question: And the “discontinuations due to treatment related AEs” value (55 patients)?
Answer: three

Question: And the DLTs (55 patients, 8-75 mg BID)?
Answer: Grade 4 neutropenia (15 mg BID) and Grade 3 cellulitis (wound infection, 75 mg BID)

Question: And the “dose-related trends in related Grade 3 or Grade 4 AEs” value (55 patients, 8-75 mg BID)?
Answer: No dose-related trends

Question: And the “Any AE” value (Safety Population (n = 55))?
Answer: 46

Question: And the “Any AE, Grade 3” value (Safety Population (n = 55))?
Answer: 18

Question: What about the “Any AE, Grade 4” value (Safety Population (n = 55)) of the same compound?
Answer: 8

Question: And the “New Grade 3 ALT” value (Safety Population (n = 55))?
Answer: 5

Question: And the “New Grade 3 ANC” value (Safety Population (n = 55))?
Answer: 10

Question: And the “New Grade 4 ANC” value (Safety Population (n = 55))?
Answer: 5

Question: What about the “Related AE” value (Safety Population (n = 55)) of the same compound?
Answer: 31

Question: What about the “Related Grade 3 AE” value (Safety Population (n = 55)) of the same compound?
Answer: 14

Question: And the “Related Grade 4 AE” value (Safety Population (n = 55))?
Answer: 6

Question: And the “Deaths on Study” value (Safety Population (n = 55), all due to disease progression)?
Answer: 3 n

Question: What about the IC50 [2] of the same compound?
Answer: > 50 µM

Question: What about the Foral [3] of the same compound?
Answer: 40%

Question: What about the EC50 [4] of the same compound?
Answer: 0.005 to 0.01 µM

Question: What about the “effects on respiratory parameters (respiratory rate, tidal volume, minute volume)” value [5] of the same compound?
Answer: no Compound 292-related effects

Question: And the genetic toxicity [6]?
Answer: no genetic toxicity

Question: What about the IC50 [7] of the same compound?
Answer: > 50 µM

Question: What about the Foral [8] of the same compound?
Answer: 7% and 7i %
